Laboratory results: ChEMBL document CHEMBL1201862, “PubChem BioAssay data set” (2004)
The source made the active and inactive calls.

How the values were obtained:
[1] = biological target: T1, Voltage-gated N-type calcium channel alpha-1B subunit/Amyloid beta A4 precursor protein-binding family A member 1 (Homo sapiens, UniProt Q00975+Q02410); type: protein assay
[2] = biological target: T1, Voltage-gated N-type calcium channel alpha-1B subunit/Amyloid beta A4 precursor protein-binding family A member 1; type: protein assay; remark: listed apart in the source
Beta-galactosidase = Beta-galactosidase (Escherichia coli, UniProt Q8VNN2); assay: detection-enzyme interference by beta-gal modulators – biochemical, E. coli enzyme, set 3, artefact control for CCR6 antagonist project, dose response (AID 504712); type: functional
[3] = biological target: Heat shock protein HSP 90-alpha (Homo sapiens, UniProt P07900); type: functional, organism-based
[4] = biological target: DNA dC->dU-editing enzyme APOBEC-3G (Homo sapiens, UniProt Q9HC16); assay: Dose Response confirmation of small molecule APOBEC3G DNA Deaminase Inhibitors via a fluorescence-based single-stranded DNA deaminase assay. [Related pubchem assays (depositor defined):AID493012, AID493028]; type: functional
Large T antigen = Large T antigen (Simian virus 40, UniProt P03070); type: functional, Betapolyomavirus macacae;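 note: Confirmatory-stage PubChem screen for compounds that inhibit SV40 T antigen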
HEK293 [5] = assay: cells; conditions: Homo sapiens
HEK293 [6] = assay: cells; conditions: Homo sapiens; remark: listed apart in the source
[7] = HEK-293T cell viability reduction – luminescence, B-cell screen hits, cytotoxicity control for BCR NF-kB inhibitor project, dose response (AID 489021); type: functional, cell-based;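 note: HEK-293T cells carrying an NF-kB luciferase reporter; cells exposed to compound for about 14 hours before viability readout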
H4 = assay: Luminescence Cell-Based Dose Response HTS to Identify Activators of 5'UTR Stem-Loop Driven Prion Protein mRNA Translation in H4 Neuroglioblastoma Cells. [Related pubchem assays: 1829 (Project Summary), 1814 (Primary HTS)]; type: functional; conditions: Homo sapiens
[8] = THP-1 cell cytotoxicity, dose response, cytotoxicity control for non-replicating M. tuberculosis project (AID 489025); type: functional
cells = type: functional
[9] = biological target: T2, Polyadenylate-binding protein 1 (Homo sapiens, UniProt P11940); assay: MLLE domain peptide-binding blockers, IC50 – biochemical, fluorescence polarization, FITC-PAM2 peptide, dose response (AID 602259); type: functional; conditions: read-out: IC50_Mean
[10] = biological target: T2, Polyadenylate-binding protein 1; assay: MLLE binding blockers, Cy5 peptide tracer – biochemical, fluorescence polarization, Cy5-PAM2 peptide, secondary, miRNA deadenylation inhibitor project, dose response (AID 602260); type: functional; conditions: read-out: IC50_Mean
[11] = Luminescence Cell-Based Dose Confirmation HTS to Identify Activators of 5'UTR Stem-Loop Driven Alpha-Synuclein mRNA Translation in H4 Neuroglioblastoma Cells. [Related pubchem assays: 1829 (Project Summary), 1814 (Primary HTS)]; type: functional
[12] = biological target: FAD-linked sulfhydryl oxidase ALR (Homo sapiens, UniProt P55789); assay: ALR-catalysed DTT oxidation blockers – biochemical, H2O2 detection, luminescence, cherry-pick, dose response (AID 493248)
[13] = Vero E6 cell cytotoxicity, dose response, cytotoxicity control for non-replicating M. tuberculosis project, secondary assay (AID 492998); type: functional, VeroE6; conditions: Vero C1008
[14] = Luminescence Cell-Based Dose Response HTS to Identify Activators of Luciferase Translation or Activity in H4 […] Cells. [Related pubchem assays: 1829 (Project Summary), 1814 (Primary HTS)]; type: functional
[15] = Trypanosoma cruzi growth suppression in host cells – NIH3T3 host cells, beta-gal luminescence, confirmation (AID 2044); type: functional, cell-based;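 note: intracellular parasites grown in NIH/3T3 mouse fibroblasts as host cells; luminescent beta-galactosidase reporter signal from transgenic T. cruzi replicating inside host cells; inhibitors lower the luminescence signal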
[16] = NIH3T3 cell viability loss – ATP luminescence, mouse fibroblasts, counter-screen, dose response (AID 2010); type: functional, cell-based;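 note: cells exposed to compound for about 90 hours before reading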

T1 sequence (Q00975 whole entry): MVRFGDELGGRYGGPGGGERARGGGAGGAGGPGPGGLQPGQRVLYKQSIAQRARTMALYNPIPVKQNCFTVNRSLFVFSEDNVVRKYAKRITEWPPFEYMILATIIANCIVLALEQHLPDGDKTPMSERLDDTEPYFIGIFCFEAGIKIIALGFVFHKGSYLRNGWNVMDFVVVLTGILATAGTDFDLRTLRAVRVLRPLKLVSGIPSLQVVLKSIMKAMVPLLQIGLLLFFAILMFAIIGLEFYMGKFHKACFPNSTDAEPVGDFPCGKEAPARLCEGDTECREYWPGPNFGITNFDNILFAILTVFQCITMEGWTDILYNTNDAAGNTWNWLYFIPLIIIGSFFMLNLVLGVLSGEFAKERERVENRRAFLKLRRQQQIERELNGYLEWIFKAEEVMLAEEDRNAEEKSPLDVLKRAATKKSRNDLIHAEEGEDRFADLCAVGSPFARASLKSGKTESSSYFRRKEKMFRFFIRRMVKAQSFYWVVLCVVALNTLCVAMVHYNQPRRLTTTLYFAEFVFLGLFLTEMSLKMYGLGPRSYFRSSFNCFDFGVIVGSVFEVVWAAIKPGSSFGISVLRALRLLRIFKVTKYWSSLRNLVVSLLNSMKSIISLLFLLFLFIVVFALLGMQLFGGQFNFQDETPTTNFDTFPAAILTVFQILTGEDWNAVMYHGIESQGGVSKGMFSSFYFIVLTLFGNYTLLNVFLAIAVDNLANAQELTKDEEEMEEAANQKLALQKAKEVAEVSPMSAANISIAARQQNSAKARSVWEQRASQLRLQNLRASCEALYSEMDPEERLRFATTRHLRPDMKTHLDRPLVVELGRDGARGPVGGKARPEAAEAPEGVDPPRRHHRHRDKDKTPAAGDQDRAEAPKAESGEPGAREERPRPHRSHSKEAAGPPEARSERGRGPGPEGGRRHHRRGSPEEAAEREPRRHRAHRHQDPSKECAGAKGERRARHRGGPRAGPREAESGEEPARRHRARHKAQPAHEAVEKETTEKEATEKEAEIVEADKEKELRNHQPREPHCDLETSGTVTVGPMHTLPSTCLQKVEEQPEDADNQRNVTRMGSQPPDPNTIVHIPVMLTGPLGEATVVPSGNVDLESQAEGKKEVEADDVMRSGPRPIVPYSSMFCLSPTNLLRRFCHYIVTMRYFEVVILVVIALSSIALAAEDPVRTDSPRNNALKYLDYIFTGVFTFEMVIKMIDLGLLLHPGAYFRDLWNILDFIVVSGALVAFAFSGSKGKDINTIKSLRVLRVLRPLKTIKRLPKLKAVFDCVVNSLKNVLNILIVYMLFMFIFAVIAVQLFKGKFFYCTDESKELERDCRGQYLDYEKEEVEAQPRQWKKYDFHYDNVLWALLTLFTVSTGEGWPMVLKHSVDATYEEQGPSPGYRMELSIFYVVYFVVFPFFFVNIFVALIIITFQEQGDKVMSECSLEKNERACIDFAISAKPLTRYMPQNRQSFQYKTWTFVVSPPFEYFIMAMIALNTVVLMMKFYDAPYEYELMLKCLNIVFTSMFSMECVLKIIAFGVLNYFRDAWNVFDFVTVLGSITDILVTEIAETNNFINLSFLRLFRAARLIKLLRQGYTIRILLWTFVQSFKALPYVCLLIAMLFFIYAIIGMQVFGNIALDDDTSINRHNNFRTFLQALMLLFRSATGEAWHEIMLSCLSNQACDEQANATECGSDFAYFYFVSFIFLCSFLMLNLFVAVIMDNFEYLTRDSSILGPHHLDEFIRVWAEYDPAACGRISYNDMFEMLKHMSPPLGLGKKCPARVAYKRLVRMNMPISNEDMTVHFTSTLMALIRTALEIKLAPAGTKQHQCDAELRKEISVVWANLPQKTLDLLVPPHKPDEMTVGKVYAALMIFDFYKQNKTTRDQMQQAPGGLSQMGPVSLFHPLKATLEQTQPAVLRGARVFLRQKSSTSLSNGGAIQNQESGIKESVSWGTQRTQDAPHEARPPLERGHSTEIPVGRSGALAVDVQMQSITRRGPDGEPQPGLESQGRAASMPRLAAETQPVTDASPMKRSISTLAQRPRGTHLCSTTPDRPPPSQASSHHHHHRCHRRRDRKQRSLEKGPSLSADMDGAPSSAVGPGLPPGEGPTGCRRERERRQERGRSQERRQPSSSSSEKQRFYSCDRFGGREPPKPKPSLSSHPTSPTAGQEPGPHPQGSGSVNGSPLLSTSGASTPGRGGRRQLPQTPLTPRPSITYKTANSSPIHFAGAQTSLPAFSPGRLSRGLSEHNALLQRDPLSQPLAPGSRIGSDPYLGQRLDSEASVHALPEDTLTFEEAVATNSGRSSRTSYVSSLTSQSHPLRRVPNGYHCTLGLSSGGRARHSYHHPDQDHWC
T1 sequence (Q02410 whole entry): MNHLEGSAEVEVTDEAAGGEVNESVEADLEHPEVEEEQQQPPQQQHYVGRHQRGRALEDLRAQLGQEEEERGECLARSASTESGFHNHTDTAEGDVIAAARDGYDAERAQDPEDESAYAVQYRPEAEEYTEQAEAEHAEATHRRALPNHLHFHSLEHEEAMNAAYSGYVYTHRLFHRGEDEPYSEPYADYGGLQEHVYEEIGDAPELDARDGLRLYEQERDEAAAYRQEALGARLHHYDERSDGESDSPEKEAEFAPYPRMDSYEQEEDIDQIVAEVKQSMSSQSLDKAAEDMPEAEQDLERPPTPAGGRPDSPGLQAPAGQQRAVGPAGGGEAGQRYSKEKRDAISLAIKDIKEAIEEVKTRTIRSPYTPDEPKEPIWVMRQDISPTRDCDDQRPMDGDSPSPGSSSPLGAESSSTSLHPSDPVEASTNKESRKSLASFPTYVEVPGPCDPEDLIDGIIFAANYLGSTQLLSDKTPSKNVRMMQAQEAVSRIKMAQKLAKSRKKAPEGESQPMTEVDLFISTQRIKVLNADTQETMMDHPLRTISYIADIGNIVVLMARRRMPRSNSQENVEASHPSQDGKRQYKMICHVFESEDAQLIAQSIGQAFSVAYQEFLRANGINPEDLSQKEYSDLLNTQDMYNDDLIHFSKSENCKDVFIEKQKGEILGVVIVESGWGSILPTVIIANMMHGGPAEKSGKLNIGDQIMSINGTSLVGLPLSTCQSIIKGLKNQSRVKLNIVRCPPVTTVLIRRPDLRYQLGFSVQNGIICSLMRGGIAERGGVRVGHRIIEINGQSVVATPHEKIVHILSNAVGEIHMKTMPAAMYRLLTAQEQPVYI
T2 sequence (P11940 whole entry, the tested form may be a part): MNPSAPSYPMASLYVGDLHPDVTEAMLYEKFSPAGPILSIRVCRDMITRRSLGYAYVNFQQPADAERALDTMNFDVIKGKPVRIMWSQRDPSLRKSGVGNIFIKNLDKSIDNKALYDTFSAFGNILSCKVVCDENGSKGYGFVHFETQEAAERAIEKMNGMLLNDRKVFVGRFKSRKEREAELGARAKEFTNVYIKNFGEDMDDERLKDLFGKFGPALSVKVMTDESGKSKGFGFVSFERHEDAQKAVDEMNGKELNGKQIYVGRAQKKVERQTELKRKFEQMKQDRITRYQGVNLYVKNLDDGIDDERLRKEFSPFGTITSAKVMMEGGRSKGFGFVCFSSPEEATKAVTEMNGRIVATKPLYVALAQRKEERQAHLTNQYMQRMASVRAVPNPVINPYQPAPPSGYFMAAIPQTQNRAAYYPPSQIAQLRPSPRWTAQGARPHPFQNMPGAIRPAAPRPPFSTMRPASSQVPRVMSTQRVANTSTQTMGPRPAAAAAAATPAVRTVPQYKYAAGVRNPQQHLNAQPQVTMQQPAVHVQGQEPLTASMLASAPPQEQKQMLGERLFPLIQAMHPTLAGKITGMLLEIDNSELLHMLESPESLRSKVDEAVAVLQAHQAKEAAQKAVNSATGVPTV
Chain of Beta-galactosidase (Q8VNN2 whole entry): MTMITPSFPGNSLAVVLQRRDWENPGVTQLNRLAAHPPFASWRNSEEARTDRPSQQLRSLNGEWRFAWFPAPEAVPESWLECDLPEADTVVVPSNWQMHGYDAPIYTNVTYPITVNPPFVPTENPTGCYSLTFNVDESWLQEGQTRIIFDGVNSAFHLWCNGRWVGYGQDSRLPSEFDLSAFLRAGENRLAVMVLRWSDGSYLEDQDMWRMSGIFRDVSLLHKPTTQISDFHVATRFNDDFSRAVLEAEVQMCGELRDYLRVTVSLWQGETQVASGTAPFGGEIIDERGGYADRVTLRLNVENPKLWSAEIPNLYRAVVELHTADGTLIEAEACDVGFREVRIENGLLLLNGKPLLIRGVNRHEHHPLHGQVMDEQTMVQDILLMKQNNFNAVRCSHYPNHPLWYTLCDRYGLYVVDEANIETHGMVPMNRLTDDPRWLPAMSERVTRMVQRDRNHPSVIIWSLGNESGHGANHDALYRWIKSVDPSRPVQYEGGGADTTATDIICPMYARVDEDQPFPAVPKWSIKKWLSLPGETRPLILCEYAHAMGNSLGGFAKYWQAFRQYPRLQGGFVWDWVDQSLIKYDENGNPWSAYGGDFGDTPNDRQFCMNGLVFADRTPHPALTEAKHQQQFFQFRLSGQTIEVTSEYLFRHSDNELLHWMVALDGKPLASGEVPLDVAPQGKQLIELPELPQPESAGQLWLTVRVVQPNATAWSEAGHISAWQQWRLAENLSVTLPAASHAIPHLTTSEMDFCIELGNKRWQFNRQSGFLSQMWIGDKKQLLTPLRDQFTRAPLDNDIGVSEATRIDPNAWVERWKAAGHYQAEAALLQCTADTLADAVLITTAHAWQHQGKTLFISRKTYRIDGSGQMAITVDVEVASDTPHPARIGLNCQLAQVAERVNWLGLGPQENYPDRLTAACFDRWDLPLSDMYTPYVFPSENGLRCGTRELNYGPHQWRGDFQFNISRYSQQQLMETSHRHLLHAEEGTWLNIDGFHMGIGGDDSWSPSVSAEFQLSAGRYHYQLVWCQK
Chain of FAD-linked sulfhydryl oxidase ALR (P55789 whole entry): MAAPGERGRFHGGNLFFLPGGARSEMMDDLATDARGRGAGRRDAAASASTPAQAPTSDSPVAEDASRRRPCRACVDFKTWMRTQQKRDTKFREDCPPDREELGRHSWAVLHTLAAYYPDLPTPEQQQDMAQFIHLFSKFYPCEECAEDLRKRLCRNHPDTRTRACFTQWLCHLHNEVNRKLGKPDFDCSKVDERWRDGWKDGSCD

COc1cc(N2C(=O)C=CC2=O)c(OC)cc1Cl
IC50 [1]: 1.97 µM (active)
IC50 [2]: 11.6 µM (active)
IC50 (Beta-galactosidase): > 66.6 µM (inactive)
AC50 [3]: 2.72 µM (active)
IC50 [4]: 44 µM (active)
IC50 (Large T antigen): 54.6 µM (active)

Cc1ccc(N(C(=O)Cc2cccs2)C(C(=O)NC2CCCCC2)c2ccccn2)cc1C (stereo not given)
EC50 (HEK293 [5]): > 0.245 µM (active)
EC50 (HEK293 [6]): > 59.6 µM (inactive)

CN(C)c1nc(-c2ccccc2)[n+](C)s1
IC50 [1]: > 50 µM (inactive)
IC50 [2]: 3.76 µM (active)

Cn1cnc([N+](=O)[O-])c1Sc1ccc([N+](=O)[O-])cc1
IC50 [7]: > 80 µM (inactive)
EC50 (H4): > 120 µM (not active)
CC50 [8]: > 40 µM (active)
IC50 (cells): 10.8 µM (active)
IC50 [9]: > 66 µM (inactive)
IC50 [10]: > 66 µM (inactive)
EC50 [11]: > 120 µM (not active)
AC50 [12]: 8.39 µM (active)
CC50 [13]: > 20 µM (active)
EC50 [14]: > 120 µM (not active)

Cc1ccc(C)c(-c2csc(NC(=O)c3cnccn3)n2)c1
EC50 [15]: 2.04 µM (active)
IC50 (cells): 3.99 µM (active)
EC50 [16]: 10.4 µM (active)
CC50 [13]: 17.6 µM (active)

N#CC1=C(SCc2ccc(C#N)cc2)N=C(N)C(c2nc(-c3ccccc3)cs2)C12CCCCC2 (stereo not given)
EC50 (HEK293 [5]): > 59.6 µM (inactive)
EC50 (HEK293 [6]): > 59.6 µM (inactive)

Cc1cc(C(=O)N/N=C/c2ccc(Cl)c([N+](=O)[O-])c2)c(C)n1-c1ccc(F)cc1
EC50 (HEK293 [5]): > 59.7 µM (inactive)
EC50 (HEK293 [6]): > 59.7 µM (inactive)

COc1ccccc1NC(=O)/C(O)=C/C(=O)c1ccccc1
IC50 (cells): 32 µM (active)
CC50 [13]: > 20 µM (active)
